Laboratory results from patent US12545637B2, “Extrahepatic targeted cationic lipid compound with high efficiency and low toxicity and its composition” (BEIJING YOUCARE KECHUANG PHARMACEUTICAL TECHNOLOGY CO., LTD., priority 2023, dated 2026).
Values joined by “and” are separate entries in the source; they are usually repeats but may differ in a detail not shown here. Equal values may be shown once.

Legend:
[1] = Particle size and polydispersity index (PDI) of lipid nanoparticles by dynamic light scattering; format: physicochemical
Protocol: The particle size and polydispersity index (PDI) were determined by dynamic light scattering using Malvern laser particle size analyzer.
10 μL of the liposome solution was weighed, diluted to 1 mL with RNase-free deionized water, and added to the sample pool. Each sample was measured in triplicate. The measurement conditions were: […] scattering angle, and 25° C.

293T cells [2] = assay: Fluorescent detection of Fluc-mRNA (cell transfection efficiency of LNP formulations); format: cell-based
Protocol: (§1) Seeding plate: The cells in the culture dish were digested and counted. Cells were spread in a 96-well plate at 10,000 cells per well and in a 12-well plate at 150,000 cells per well. Cells were cultured overnight until the cells adhered to the wall.
The corresponding reagents were added according to the instructions of the Gaussia Luciferase Assay Kit, and the fluorescence expression intensity of each well was detected by an IVIS fluorescence detection system.

female BALB/C mice = assay: In vivo imaging in mice of Fluc-mRNA LNP formulations (mRNA expression and duration)
Protocol: The LNP formulation (prepared according to Example 4) containing […] Fluc-mRNA was injected intramuscularly into female BALB/C mice aged 4-6 weeks and weighed 17-19 g, and the mice were intraperitoneally injected with fluorescent imaging substrate at specific time points after administration (6h, 24 h, 48h and 7d), where the mice were allowed to free move for 5 minutes, and then the average radiation intensity (corresponding to fluorescence expression intensity) of the protein expression of the mRNA carried by the LNP in the mice was detected by the IVIS Spectrum small animal in vivo imaging system.

293T cells [3] = assay: Cell survival rate assay (CCK-8); format: cell-based
Protocol: Cell recovery and passage: 293T cells were recovered, cultured in a culture dish, and passaged to the required number of cells.
as §1
An LNP formulation containing 1.5 μg of Fluc-mRNA (prepared according to example 4, the carrier components of the LNP formulation were cationic lipid, neutral lipid, structured lipid and polymer-conjugated lipid at a molar ratio of 49:10:39.5:1.5, wherein the cationic lipid was listed in Table 1) and the formulation of Lipofectamine 3000 were added to the cell culture medium of a 96-well plate, and further cultivated for 24 hours. 10 μL of CCK-8 solution was then added to each well, and the culture plate was incubated in an incubator for 1 hour. The absorbance at 450 nm was measured by a microplate reader.

293T cells [4] = assay: Fluorescent detection of Fluc-mRNA (cell transfection efficiency of LNP formulations); format: cell-based; remark: listed apart in the source

Q: With `CCCCCCCCC(CCCCCCCC)OC(=O)CCCCCN(CCO)CCN(CCO)CCCCCC(=O)OC(CCCCCCCC)CCCCCCCC` [YK-401, di(heptadecan-9-yl) 6,6′-(ethane-1,2-diyl-bis((2-hydroxyethyl)azanediyl))dihexanoate] as the compound, how does the PDI ([1]; LNP formulation of the cationic lipid, 25° C.) read?
A: 17.7%

Q: What about the Particle size ([1]; LNP formulation of the cationic lipid/DSPC/cholesterol/DMG-PEG2000 49:10:39.5:1.5, 25° C.) of the same compound?
A: 152 nm

Q: And the “Relative light unit (RLU)” value (293T cells [2]; LNP with 0.3 μg Fluc-mRNA, 96-well plate, 24 hours)?
A: 5609550 RLU

Q: And the “cell transfection efficiency, times that of YK-415” value (293T cells [2]; ratio vs YK-415)?
A: 18.82

Q: What about the “cell transfection efficiency, times that of YK-417” value (293T cells [2]; ratio vs YK-417) of the same compound?
A: 47.83

Q: And the “cell transfection efficiency, times that of YK-418” value (293T cells [2]; ratio vs YK-418)?
A: 50.42

Q: What about the “cell transfection efficiency, times that of YK-424” value (293T cells [2]; ratio vs YK-424) of the same compound?
A: 1.95

Q: What about the “RLU value, times that of compound 21” value (293T cells [2]; ratio vs compound 21) of the same compound?
A: 3.71

Q: What about the “RLU value, times that of compound 23” value (293T cells [2]; ratio vs compound 23) of the same compound?
A: 4.00

Q: What about the “average radiation intensity, times that of ALC-0315” value (female BALB/C mice; 6 h) of the same compound?
A: 1.85

Q: What about the “average radiation intensity, times that of HHMA” value (female BALB/C mice; 6 h) of the same compound?
A: 2.36

Q: And the “average radiation intensity, times that of SM-102” value (female BALB/C mice; 6 h)?
A: 2.25

Q: And the “average radiation intensity, times that of compound 21” value (female BALB/C mice; 6 h)?
A: 2.59

Q: What about the “average radiation intensity, times that of compound 23” value (female BALB/C mice; 6 h) of the same compound?
A: 2.68

Q: And the “expression amount in mice, times that of YK-415” value (“expression amount … of YK-415” for short) (female BALB/C mice; 6 h)?
A: 13.22

Q: What about the “expression amount in mice, times that of YK-417” value (shortened to “expression amount … of YK-417”) (female BALB/C mice; 6 h) of the same compound?
A: 25.75

Q: And the “mRNA expression in mice, times that of YK-411” value (“mRNA expression in mice” below) (female BALB/C mice; 6 h)?
A: 266.26

Q: And the “average radiation intensity, times that of ALC-0315” value (female BALB/C mice; 24 h)?
A: 4.25

Q: What about the “average radiation intensity, times that of HHMA” value (female BALB/C mice; 24 h) of the same compound?
A: 6.72

Q: What about the “average radiation intensity, times that of SM-102” value (female BALB/C mice; 24 h) of the same compound?
A: 6.53

Q: What about the “average radiation intensity, times that of compound 21” value (female BALB/C mice; 24 h) of the same compound?
A: 7.26

Q: What about the “average radiation intensity, times that of compound 23” value (female BALB/C mice; 24 h) of the same compound?
A: 7.98

Q: And the “expression amount … of YK-415” value (female BALB/C mice; 24 h)?
A: 12.50

Q: What about the “expression amount … of YK-417” value (female BALB/C mice; 24 h) of the same compound?
A: 40.34

Q: What about the “mRNA expression in mice” value (female BALB/C mice; 24 h) of the same compound?
A: 398.73

Q: And the “average radiation intensity, times that of ALC-0315” value (female BALB/C mice; 48 h)?
A: 9.79

Q: What about the “average radiation intensity, times that of HHMA” value (female BALB/C mice; 48 h) of the same compound?
A: 11.79

Q: And the “average radiation intensity, times that of SM-102” value (female BALB/C mice; 48 h)?
A: 11.96

Q: And the “average radiation intensity, times that of compound 21” value (female BALB/C mice; 48 h)?
A: 12.46

Q: And the “average radiation intensity, times that of compound 23” value (female BALB/C mice; 48 h)?
A: 11.94

Q: What about the “expression amount … of YK-415” value (female BALB/C mice; 48 h) of the same compound?
A: 24.89

Q: What about the “expression amount … of YK-417” value (female BALB/C mice; 48 h) of the same compound?
A: 55.79

Q: What about the “mRNA expression in mice” value (female BALB/C mice; 48 h) of the same compound?
A: 403.10

Q: And the “average radiation intensity, times that of ALC-0315” value (female BALB/C mice; 7 d)?
A: 1.50

Q: And the “average radiation intensity, times that of HHMA” value (female BALB/C mice; 7 d)?
A: 1.76

Q: And the “average radiation intensity, times that of SM-102” value (female BALB/C mice; 7 d)?
A: 1.56

Q: What about the “average radiation intensity, times that of compound 21” value (female BALB/C mice; 7 d) of the same compound?
A: 1.65

Q: And the “average radiation intensity, times that of compound 23” value (female BALB/C mice; 7 d)?
A: 1.72

Q: What about the “expression amount … of YK-415” value (female BALB/C mice; 7 d) of the same compound?
A: 2.60

Q: And the “expression amount … of YK-417” value (female BALB/C mice; 7 d)?
A: 4.60

Q: And the “mRNA expression in mice” value (female BALB/C mice; 7 d)?
A: 21.90

Q: And the “average radiation intensity, 6 h” value (female BALB/C mice; Fluc-mRNA LNP intramuscular, 6 h after administration)?
A: 1557640

Q: What about the “average radiation intensity, 24 h” value (female BALB/C mice; Fluc-mRNA LNP intramuscular, 24 h after administration) of the same compound?
A: 806240

Q: And the “average radiation intensity, 48 h” value (female BALB/C mice; Fluc-mRNA LNP intramuscular, 48 h after administration)?
A: 393020

Q: What about the “average radiation intensity, 7 d” value (female BALB/C mice; Fluc-mRNA LNP intramuscular, 7 d after administration) of the same compound?
A: 10512

Q: What about the Cell survival rate (293T cells [3]; LNP with 1.5 μg Fluc-mRNA, 24 hours, CCK-8) of the same compound?
A: 75.21%

Q: And the “cell survival rate higher than ALC-0315” value (293T cells [3]; difference vs ALC-0315)?
A: 28.00%

Q: What about the “cell survival rate higher than HIMA” value (293T cells [3]; difference vs HIMA (HHMA)) of the same compound?
A: 10.94%

Q: What about the “cell survival rate higher than Lipofectamine 3000” value (293T cells [3]; difference vs Lipofectamine 3000) of the same compound?
A: 53.55%

Q: And the “cell survival rate higher than SM-102” value (293T cells [3]; difference vs SM-102)?
A: 4.31% and 7.31%

Q: And the “cell survival rate higher than YK-404” value (293T cells [3]; difference vs YK-404)?
A: 33.09%

Q: And the “cell survival rate higher than YK-405” value (293T cells [3]; difference vs YK-405)?
A: 33.35%

Q: And the “cell survival rate higher than YK-406” value (293T cells [3]; difference vs YK-406)?
A: 50.25%

Q: What about the “cell survival rate higher than YK-408” value (293T cells [3]; difference vs YK-408) of the same compound?
A: 32.90%

Q: And the “cell survival rate higher than YK-409” value (293T cells [3]; difference vs YK-409)?
A: 29.10%

Q: What about the “cell survival rate higher than YK-410” value (293T cells [3]; difference vs YK-410) of the same compound?
A: 30.29%

Q: What about the “cell survival rate higher than YK-411” value (293T cells [3]; difference vs YK-411) of the same compound?
A: 58.88%

Q: What about the “cell survival rate higher than YK-412” value (293T cells [3]; difference vs YK-412) of the same compound?
A: 21.07%

Q: And the “cell survival rate higher than YK-413” value (293T cells [3]; difference vs YK-413)?
A: 28.01%

Q: And the “cell survival rate higher than YK-414” value (293T cells [3]; difference vs YK-414)?
A: 46.46%

Q: And the “cell survival rate higher than YK-415” value (293T cells [3]; difference vs YK-415)?
A: 14.05%

Q: And the “cell survival rate higher than YK-416” value (293T cells [3]; difference vs YK-416)?
A: 34.24%

Q: And the “cell survival rate higher than YK-417” value (293T cells [3]; difference vs YK-417)?
A: 53.87%

Q: What about the “cell survival rate higher than YK-418” value (293T cells [3]; difference vs YK-418) of the same compound?
A: 54.16%

Q: What about the “cell survival rate higher than YK-419” value (293T cells [3]; difference vs YK-419) of the same compound?
A: 36.29%

Q: And the “cell survival rate higher than YK-420” value (293T cells [3]; difference vs YK-420)?
A: 39.62%

Q: What about the “cell survival rate higher than YK-421” value (293T cells [3]; difference vs YK-421) of the same compound?
A: 39.50%

Q: What about the “cell survival rate higher than YK-424” value (293T cells [3]; difference vs YK-424) of the same compound?
A: 47.28%

Q: And the “cell survival rate higher than compound 21” value (293T cells [3]; difference vs compound 21)?
A: 7.37%

Q: And the “cell survival rate higher than compound 23” value (293T cells [3]; difference vs compound 23)?
A: 6.10%

Q: And the “cytotoxicity reduced compared with YK-411” value (293T cells [3]; rounded summary statement vs YK-411)?
A: 50%

Q: And the “RLU value, times that of ALC-0315” value (293T cells [4]; ratio vs ALC-0315)?
A: 2.56

Q: And the “RLU value, times that of HHMA” value (293T cells [4]; ratio vs HHMA)?
A: 2.70

Q: And the “RLU value, times that of Lipofectamine 3000” value (293T cells [4]; ratio vs Lipofectamine 3000)?
A: 4.67

Q: And the “RLU value, times that of YK-009” value (293T cells [4]; ratio vs YK-009)?
A: 1.09

Q: And the “RLU value, times that of YK-405” value (293T cells [4]; ratio vs YK-405)?
A: 1.75

Q: And the “RLU value, times that of YK-406” value (293T cells [4]; ratio vs YK-406)?
A: 71.69

Q: And the “RLU value, times that of YK-408” value (293T cells [4]; ratio vs YK-408)?
A: 3.81

Q: And the “RLU value, times that of YK-409” value (293T cells [4]; ratio vs YK-409)?
A: 8.37

Q: What about the “RLU value, times that of YK-410” value (293T cells [4]; ratio vs YK-410) of the same compound?
A: 13.75

Q: And the “cell transfection efficiency, times that of YK-412” value (293T cells [4]; ratio vs YK-412)?
A: 1.66

Q: What about the “cell transfection efficiency, times that of YK-413” value (293T cells [4]; ratio vs YK-413) of the same compound?
A: 4.07

Q: And the “cell transfection efficiency, times that of YK-414” value (293T cells [4]; ratio vs YK-414)?
A: 12.63

Q: And the “cell transfection efficiency, times that of YK-416” value (293T cells [4]; ratio vs YK-416)?
A: 1.41

Q: What about the “cell transfection efficiency, times that of YK-419” value (293T cells [4]; ratio vs YK-419) of the same compound?
A: 1.77

Q: What about the “cell transfection efficiency, times that of YK-420” value (293T cells [4]; ratio vs YK-420) of the same compound?
A: 1.40

Q: What about the “cell transfection efficiency, times that of YK-421” value (293T cells [4]; ratio vs YK-421) of the same compound?
A: 12.02
